These results are taken from patent US4526967A, “Benzoquinolizines and use as α2 -adrenoceptor antagonistics” (John Wyeth & Brother Limited, priority 1983, dated 1985).

One experiment has as its target T1, α1 -adrenoceptors (Rattus norvegicus, UniProt P43140).
T1 construct: isolated anococcygeus muscle of the rat; from tissue; host or cells: rat anococcygeus muscle (male, 250-360 g)
T1 sequence (P43140 1-466): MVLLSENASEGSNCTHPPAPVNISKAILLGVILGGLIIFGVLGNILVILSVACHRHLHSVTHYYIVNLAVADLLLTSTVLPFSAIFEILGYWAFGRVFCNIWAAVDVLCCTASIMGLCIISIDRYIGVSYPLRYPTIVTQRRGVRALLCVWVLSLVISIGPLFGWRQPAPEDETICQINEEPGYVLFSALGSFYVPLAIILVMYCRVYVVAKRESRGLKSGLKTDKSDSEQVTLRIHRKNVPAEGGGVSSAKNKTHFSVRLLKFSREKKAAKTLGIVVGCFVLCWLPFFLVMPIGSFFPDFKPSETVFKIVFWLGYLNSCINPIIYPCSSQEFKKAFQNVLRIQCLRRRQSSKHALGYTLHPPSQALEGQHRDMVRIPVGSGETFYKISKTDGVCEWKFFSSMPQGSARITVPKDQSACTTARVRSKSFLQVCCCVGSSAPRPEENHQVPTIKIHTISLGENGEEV
The experiment in a line: α1 antagonistic activity on the isolated anococcygeus muscle of the rat (antagonism of phenylephrine or methoxamine). As to conditions: agonist phenylephrine or methoxamine, Arunlakshana & Schild, read-out: pA2 values for α1 antagonistic activity (converted). From the text:
The compounds of the invention generally antagonise the α2 -adrenoceptors to a much greater extent than the α1 -adrenoceptors. The α1 antagonistic activity can be evaluated by a number of different methods. One method involves assessing the activity on the isolated anococcygeus muscle of the rat. The method is based on that of Gillespie, Br.J.Pharmac., 1972, 45, 404-416. In the procedure male rats (250-360 g) are killed by a blow on the head and bled. The two anococcygeus muscles are removed from their position in the midline of the pelvic cavity, where they arise from the upper coccygeal vertebrae. The muscles are suspended in 5 ml organ baths in Krebs solution containing […] ascorbic acid, to prevent drug oxidation. The tissues are gassed with a 95% oxygen, 5% CO2 mixture and maintained at 37°. Longitudinal muscle contractions are recorded using isotonic transducers. Cumulative dose response curves are then obtained to phenylephrine or in some cases methoxamine, both agents being […] alpha adrenoceptor agonists. The concentration range of phenylephrine or methoxamine used is 0.02 to 0.8 μg.ml^-1. The agonist is then washed from the bath and the test drug added to the bathing medium at a concentration of 10^-6 M. After 30 min equilibration with the test drug a further agonist dose response curve is obtained. The washing, equilibration and agonists dosing procedures are then repeated using 10^-5 M and 10^-4 M solutions of the test drug. Estimates of the pA2 value for the test drug as an antagonist of phenylephrine or methoxamine were made from the agonist dose-ratios using the method of Arunlakshana & Schild, Br. J.Pharmac.Chemother., 1959, 14, 48-58.

In another experiment the target is T2, α2 -adrenoceptor (Rattus norvegicus, UniProt P22909).
T2 construct: from tissue; host or cells: rat vas deferens (desheathed, field stimulated)
T2 sequence (P22909 1-465): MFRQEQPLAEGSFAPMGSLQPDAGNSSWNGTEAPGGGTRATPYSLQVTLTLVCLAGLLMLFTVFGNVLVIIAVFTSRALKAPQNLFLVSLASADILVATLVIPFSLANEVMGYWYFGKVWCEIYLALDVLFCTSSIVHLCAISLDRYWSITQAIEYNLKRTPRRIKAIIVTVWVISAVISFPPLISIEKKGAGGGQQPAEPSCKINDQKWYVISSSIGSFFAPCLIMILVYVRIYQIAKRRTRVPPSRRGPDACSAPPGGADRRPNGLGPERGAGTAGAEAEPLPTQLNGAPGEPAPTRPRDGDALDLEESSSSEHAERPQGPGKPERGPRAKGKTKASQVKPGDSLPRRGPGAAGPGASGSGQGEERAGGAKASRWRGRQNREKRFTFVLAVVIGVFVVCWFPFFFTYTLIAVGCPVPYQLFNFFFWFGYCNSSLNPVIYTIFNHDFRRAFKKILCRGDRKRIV
The experiment in a line: α2-adrenoceptor antagonistic activity on the rat field stimulated vas deferens preparation (antagonism of clonidine). As to conditions: for α2 /α1 selectivity: antilog of (α2 pA2 -α1 pA2); for Kb: rat field stimulated vas deferens, agonist clonidine, Schild plot (Arunlakshana & Schild), read-out: pA2 for α2 -adrenoceptor antagonistic activity (converted). The method, then:
The compounds of the invention are tested for α2 -adrenoceptor antagonistic activity on the rat field stimulated vas deferens preparation using a modification of the metod of Drew, Eur. J. Pharmac., 1977, 42, 123-130. The procedure is described below.
Desheathed vasa deferentia from sexually mature rats were suspended in a 6 ml organ bath in Krebs solution at 37° and bubbled with 5% CO2 in oxygen. Platinum ring electrodes were positioned above and below the tissue for field stimulation, the stimulus parameters being 0.1 Hz 1 ms pulse width at supramaximal voltage. Twitch responses were recorded isotonically with a 0.5 g loading. Clonidine hydrochloride was used as the α-adrenoceptor agonist and cumulative concentration-response curves were constructed for the inhibition of twitch obtained with clonidine in the range 0.125 to 4 ng ml^-1. After washing out clonidine, the twitch response quickly recovered and an antagonist was then introduced into the Krebs reservoir. Clonidine concentration-response curves were repeated 90 min after introduction of the antagonist. The concentration of clonidine producing 50% inhibition of twitch before and after introduction of antagonist were obtained and the dose-ratio for clonidine was calculated. Various concentrations of the antagonists were used.
Chemother., 1959, 14, 48-58 and the values of pA2 and slope were calculated.

For the molecule `CS(=O)(=O)NCCN([C@H]1CCN2CCc3ccccc3[C@H]2C1)S(C)(=O)=O` (relative stereo) [Example 2, N-[(2β,11bα)-1,3,4,6,7,11b-Hexahydro-2H-benzo[a]quinolizin-2-yl]-N-(2-methanesulphonamidoethyl)methanesulphonamide], the Kb at α1 -adrenoceptors is 4790 nM. Moreover, at α2 -adrenoceptor, the “α2 /α1 selectivity” value worked out at 407 and the Kb is 11.7 nM.

In the case of `CCCS(=O)(=O)N(CCNS(C)(=O)=O)[C@H]1CCN2CCc3ccccc3[C@H]2C1` (relative stereo) [Example 12, N-((2β,11bα)-1,3,4,6,7,11b-Hexahydro-2H-benzo[a]quinolizine-2-yl)-N-(2-methanesulphonamidoethyl)-n-propanesulphonamide], the Kb at α1 -adrenoceptors is 1580 nM. Besides, at α2 -adrenoceptor, the “α2 /α1 selectivity” value was determined as 309 and the Kb was 5.13 nM.

As for `CS(=O)(=O)NCCN([C@H]1CCN2CCc3ccccc3[C@H]2C1)S(=O)(=O)c1ccccc1` (relative stereo) [Example 13, N-((2β,11bα)-1,3,4,6,7,11b-Hexahydro-2H-benzo[a]quinolizin-2-yl)-N-(2-methanesulphonamidoethyl)benzenesulphonamide], the Kb on α1 -adrenoceptors is 631 nM. At α2 -adrenoceptor, the “α2 /α1 selectivity” value is 83 and the Kb was 7.59 nM.
